Source: patent US20260125356A1, “TREATMENT OF LEISHMANIASIS” (THE UNIVERSITY OF DURHAM, priority 2022, published 2026)
Converted amounts (≈) assume the structure as drawn. Like-named read-outs stand apart in the source and are kept apart here.

Key:
[1] = tested on: L. amazonensis promastigotes; assay: L. amazonensis promastigote dose response assay (alamarBlue/resazurin); type: cell-based; conditions: 44 hrs + 4 hrs alamarBlue/resazurin, 26° C., read-out: EC50 (L. amaz)/μM
L. major promastigotes = assay: L. major promastigote dose response assay (alamarBlue/resazurin); type: cell-based; conditions: for EC50: 44 hrs + 4 hrs alamarBlue/resazurin, 26° C.
Method: Using a standard alamarBlue™ assay, activity and selectivity were assessed using L. major promastigotes and HepG2 cells, respectively.
All parasite and human cell cultures were grown and manipulated following biosafety level 2 instructions under sterile conditions. L. major FV1, L. amazonensis (MHOM/Br/75/JOSEFA), L. donovani BOB (derived from MHOM/SD/62/1S-CL2D), T. brucei (90-13, 427 strain) and T. cruzi (Dm28c) were used throughout.
All steps were carried out under sterile conditions. Frozen stocks of the relevant Leishmania promastigote species were thawed rapidly and added to Schneider's media. Promastigotes were grown at 26° C. in Nunc EasYFlask 25 cm^2 Nunclon Delta Surface (ThermoScientific) and frozen stocks were prepared on low passage cultures (p2-4) by pelleting the cells by centrifugation and resuspending in Schneider's media with 10% DMSO. The cultures were aliquoted into cryovials (Starlab) and cooled slowly to −150° C. for long term storage.
All steps were carried out under sterile conditions. […] Cycloheximide or amphotericin B were used as positive controls and 2% DMSO was used as a negative control. alamarBlue® (ThermoFisher scientific) or resazurin solution was added to each well and incubated for a further 4 hrs at 26° C. Cell-viability was determined using a BioTek™ FLx800 microplate reader with Gen5® 1.08 data analysis software (BioTek) by monitoring fluorescence emission (λex 560/λem 590 nm). Dose response curves were fitted using sigmoidal regression analysis (GraphPad Prism 8 software) and used to calculate EC50 values.

Kinetic solubility = conditions: PBS, aqueous buffer, kinetic from dmso stock
From the text: All chemicals and solvents were sourced from commercial suppliers. Buffers were made up using purified water from a MilliQ® water purification system. Biorelevant buffers (FESSIF, FASSIF and FASSGF) were purchased from Biorelevant and made up according to manufacturer's instructions. 15% FBS (heat inactivated, South American origin, ThermoFisher scientific) in PBS (Fisher Scientific) was filter sterilised (0.22 μm Fisherbrand™ Sterile PES Syringe Filter, Fisher Scientific) before use. Sodium taurocholate was purchased from Merck.
λmax was determined for each compound from the UV-Vis absorption spectrum of a 200 LIM compound solution in buffer of interest using a Varian Cary® 100 UV-Vis Spectrophotometer. A calibration curve of λmax VS concentration was obtained by serial dilution of compound from 200 μM in the buffer of interest, correcting for background buffer absorption. For each sample, a DMSO solution of compound was incubated in buffer of interest (<5% DMSO) for 2 hrs at RT. The solution was filtered (0.22 μm Fisherbrand™ Sterile PES Syringe Filter, Fisher Scientific) or centrifuged (14,500 rpm, 10 min) to remove undissolved debris and the supernatant was removed and diluted as required. The corrected UV absorption of the supernatant at Amax Was measured using a Varian Cary® 100 UV-Vis Spectrophotometer and compared to the calibration curve to determine compound solubility.

Molecule	EC50 ([1]; Leishmania amazonensis, 48 h) [µM]	EC50 (L. major promastigotes; Leishmania major, 48 h) [µM]	EC50 (L. major promastigotes) [µM]	further results
CN(C)C(=O)c1ccccc1NC(=O)c1ccc([N+](=O)[O-])s1 [Compound 56, N-[2-(dimethylcarbamoyl)phenyl]-5′-nitrothiophene-2′-carboxamide]	6.3	17	–	–
COc1ccc(NC(=O)c2ccc([N+](=O)[O-])s2)cc1 [Compound 36, N-(4-methoxyphenyl)-5′-nitrothiophene-2′-carboxamide]	–	–	3.45	–
CNC(=O)c1ccsc1NC(=O)c1cccnc1 [Compound 15, N-[3-(methylcarbamoyl)thiophen-2-yl]pyridine-3′-carboxamide]	59 ± 2	82 ± 7	–	–
O=C(Nc1ccccc1C(=O)O)c1ccc([N+](=O)[O-])s1 [Compound 29, 2-(5′-nitrothiophene-2′-amido)benzoic acid]	–	46	–	–
CNC(=O)c1ccsc1/N=C/c1ccc([N+](=O)[O-])s1 [Compound 50, N-methyl-2-[(E)-[(5′-nitrothiophen-2′-yl)methylidene]amino]thiophene-3-carboxamide]	–	0.86 ± 0.07	–	solubility at 2 h (Kinetic solubility): 101 ± 6 µM (≈ 29.8 µg/mL)
CC(=O)c1ccccc1NC(=O)c1ccc([N+](=O)[O-])s1 [Compound 32, N-(2-acetylphenyl)-5′-nitrothiophene-2′-carboxamide]	–	–	16	–
CC(C)NC(=O)c1ccccc1NC(=O)c1ccc([N+](=O)[O-])s1 [Compound 38, 5′-nitro-N-{[(propan-2-yl)carbamoyl]-2-phenyl}thiophene-2′-carboxamide]	–	–	4	–
CNC(=O)c1ccsc1NC(=O)c1cccc([N+](=O)[O-])c1 [Compound 18, N-methyl-2-(3′-nitrobenzamido)thiophene-3-carboxamide]	> 100	> 100	–	–
O=C(Nc1ccccc1C(F)(F)F)c1ccc([N+](=O)[O-])s1 [Compound 31, 5′-nitro-N-[2-(trifluoromethyl)phenyl]thiophene-2′-carboxamide]	–	–	8.3	EC50 [1]: 4.24 µM
CNC(=O)c1ccsc1NC(=O)c1ccc([N+](=O)[O-])cc1 [Compound 19, N-methyl 2-(4′-nitrobenzamido)thiophene-3-carboxamide]	> 100	> 100	–	–
5′-amino-N-[3-(methylcarbamoyl)thiophen-2′-yl]thiophene-2-carboxamide [Compound 8]	–	–	> 100	–
NC(=O)c1ccccc1CNC(=O)c1ccc([N+](=O)[O-])s1 [Compound 47, N-(2-carbamoylbenzyl)-5′-nitrothiophene-2′-carboxamide]	–	21 ± 3	–	solubility at 2 h (Kinetic solubility): 179 ± 8 µM (≈ 54.7 µg/mL)
CNC(=O)c1ccsc1NC(=O)c1cscn1 [Compound 13, N-[3-(methylcarbamoyl)thiophen-2-yl]-1′,3′-thiazole-4′-carboxamide]	93 ± 7	> 100	–	–
CNC(=O)c1cccc(Nc2ccc([N+](=O)[O-])s2)c1 [Compound 34, N-methyl-3-[(5′-nitrothiophen-2′-yl)amino]benzamide]	–	–	3.5	EC50 [1]: 0.26 µM
O=C(c1ccc([N+](=O)[O-])s1)N1CCCc2ccccc21 [Compound 49, 1-(5′-nitrothiophene-2′-carbonyl)-1,2,3,4-tetrahydroquinoline]	–	11.1 ± 0.3	–	solubility at 2 h (Kinetic solubility): 151 ± 3 µM (≈ 43.5 µg/mL)
O=c1oc(-c2ccc([N+](=O)[O-])s2)nc2ccccc12 [Compound 57, 2-(5′-nitrothiophen-2′-yl)-4H-3,1-benzoxazin-4-one]	–	38	–	–
CCOC(=O)C1=C(NC(=O)c2ccc([N+](=O)[O-])s2)CCC1 [Compound 26, Ethyl 2-(5′-nitrothiophene-2′-amido)cyclopent-1-ene-1-carboxylate]	0.72	0.46	–	–
CNC(=O)c1ccsc1NC(=O)c1ccccc1 [Compound 10, 2-benzamido-N-methylthiophene-3-carboxamide]	55 ± 5	75 ± 5	–	–
CCOC(=O)C1CCCC1NC(=O)c1ccc([N+](=O)[O-])s1 (stereo not drawn) [Compound 22, anti-ethyl-2-(5′-nitrothiophene-2′-amido)cyclopentane-1-carboxylate]	–	–	10	EC50 [1]: 13 µM

Molecule	EC50 ([1]; Leishmania amazonensis, 48 h) [µM]	EC50 (L. major promastigotes; Leishmania major, 48 h) [µM]	EC50 (L. major promastigotes) [µM]	further results
5′-bromo-N-[3-(methylcarbamoyl)thiophen-2-yl]thiophene-2′-carboxamide [Compound 7]	–	–	> 100	EC50 [1]: > 100 µM
CNC(=O)c1cc(OC)ccc1NC(=O)c1ccc([N+](=O)[O-])s1 [Compound 41, N-[4-methoxy-2-(methylcarbamoyl)phenyl]-5′-nitrothiophene-2′-carboxamide]	–	–	16	–
CCOC(=O)C1CCCC1NC(=O)c1ccc([N+](=O)[O-])s1 (stereo not drawn) [Compound 21, syn-ethyl-2-(5′-nitrothiophene-2′-amido)cyclopentane-1-carboxylate]	–	–	22	EC50 [1]: 9.7 µM
CNC(=O)c1ccsc1NC(=O)c1nccs1 [Compound 11, N-[3-(methylcarbamoyl)thiophen-2-yl]-1′,3′-thiazole-2′-carboxamide]	> 100	78 ± 2	–	–
CNC(=O)c1ccsc1NC(=O)c1ccc([N+](=O)[O-])cc1C(F)(F)F [Compound 20, N-methyl-2-[4′-nitro-2′-(trifluoromethyl)benzamido]thiophene-3-carboxamide]	38.7	16.6 ± 0.2	–	improvement in antileishmanial activity compared to 19 (L. major promastigotes; Table 2): > 3 fold
CNC(=O)c1ccsc1NC(=O)c1ccncc1 [Compound 14, N-[3-(methylcarbamoyl)thiophen-2-yl]pyridine-4′-carboxamide]	45 ± 5	82 ± 1	–	–
CNC(=O)c1c(C)cccc1NC(=O)c1ccc([N+](=O)[O-])s1 [Compound 40, N-[3-methyl-2-(methylcarbamoyl)phenyl]-5′-nitrothiophene-2′-carboxamide]	–	–	8.5	–
O=C(N[C@H]1CCC[C@H]1C(=O)O)c1ccc([N+](=O)[O-])s1 (racemic) [Compound 23, ±syn 2-(5′-nitrothiophene-2′-amido)cyclopentane-1-carboxylic acid]	–	–	> 100	EC50 [1]: 52 µM
COc1cccc(NC(=O)c2ccc([N+](=O)[O-])s2)c1 [Compound 35, N-(3-methoxyphenyl)-5′-nitrothiophene-2′-carboxamide]	–	–	3.9	–
COc1ccccc1NC(=O)c1ccc([N+](=O)[O-])s1 [Compound 30, N-(2-methoxyphenyl)-5′-nitrothiophene-2′-carboxamide]	–	–	6.3	–
CNC(=O)c1ccsc1NC(=O)c1cncs1 [Compound 12, N-[3-(methylcarbamoyl)thiophen-2-yl]-1′,3′-thiazole-5′-carboxamide]	53 ± 3	88 ± 6	–	–
CNC(=O)c1ccsc1NC(=O)c1cnc(Cl)s1 [Compound 9, N-[3-(methylcarbamoyl)thiophen-2-yl]-2′-chloro-1′,3′-thiazole-5′-carboxamide]	–	33 ± 10	–	–
O=C(NC1CCCC1C(=O)O)c1ccc([N+](=O)[O-])s1 (racemic) [Compound 24, ±anti 2-(5′-nitrothiophene-2′-amido)cyclopentane-1-carboxylic acid]	–	–	> 100	EC50 [1]: > 100 µM
O=C(Nc1cccc(C(F)(F)F)c1)c1ccc([N+](=O)[O-])s1 [Compound 37, 5′-nitro-N-[3-(trifluoromethyl)phenyl]thiophene-2′-carboxamide]	–	–	3.5	EC50 [1]: 2.22 µM
CNC(=O)c1ccsc1NC(=O)c1cccs1 [Compound 6, N-methyl-2-(thiophene-2′-amido)thiophene-3-carboxamide]	> 100	> 100	–	–
CNC(=O)c1ccsc1NC(=O)c1ccc2nonc2c1 [Compound 16, N-[3-(methylcarbamoyl)thiophen-2-yl]-2,1,3-benzoxadiazole-5′-carboxamide]	> 100	> 100	–	–
CCCCCCCCCCCCCNC(=O)c1ccccc1NC(=O)c1ccc([N+](=O)[O-])s1 [Compound 39, 5′-nitro-N-[2-(tridecylcarbamoyl)phenyl]thiophene-2′-carboxamide]	–	–	> 100	–
CNC(=O)c1cc(C)ccc1NC(=O)c1ccc([N+](=O)[O-])s1 [Compound 42, N-[4-methyl-2-(methylcarbamoyl)phenyl]-5′-nitrothiophene-2′-carboxamide]	–	–	2.7	–
